Measured values from patent US12171755B2, “PAPD5 inhibitors and methods of use thereof” (Children's Medical Center Corporation, priority 2017, dated 2024).

Experiments:
[1] = system: TERC 3′ end processing in HEK 293 with stable shRNA-mediated knockdown of PARN; experiment: TERC 3′ end processing (3′ RACE) in PARN-deficient HEK 293 cells; format: cell-based; details: PARN-deficient human cells (HEK 293, PARN shRNA knockdown), treated for 7 days; 10 µM and 100 μM; listed as entry 1 in table 1
Procedure: The expected amplicons representing mature TERC versus extended forms are indicated (arrows). […] HEK 293 with stable shRNA-mediated knockdown of PARN were treated for 7 days with the Table 5, entry 1 compound.

PAPD5 = biological target: T1, PAPD5 (Homo sapiens, UniProt Q8NDF8); experiment: PAPD5 oligonucleotide extension assay (gel), compound dose response vs ATP; format: biochemical; details: recombinant PAPD5 in vitro
T1 construct: made in house
Procedure: Candidate inhibitors are assayed at a range of concentrations in functional assays entailing extension of fluorescently-labelled RNA oligonucleotide substrates in the presence of PAPD5, followed by gel electrophoresis. […] In FIG. 5, a 20-mer 5′-fluorescently labelled RNA oligonucleotide was incubated with recombinant WT or mutant PAPD5 for 1 hour in the presence of varying concentrations of ATP, and products were visualized by polyacrylamide gel electrophoresis. It is expected that wildtype (WT) PAPD5 with PAPD5 inhibitors can have similar results. In fact, 4 compounds were selected to test the validation assay. The results were shown in FIG. 8, and were consistent with the expected results.
Each compound tested in the assay was tested at 0 μM, 5 μM, 10 μM, 50 μM, and 100 μM. At each concentration, each compound was tested at 0 μM, 10 μM, 100 μM, and 1000 μM concentration of ATP.

PARN exonuclease = biological target: T2, PARN exonuclease (Homo sapiens, UniProt O95453); experiment: Counter-screen for inhibition of PARN exonuclease; format: biochemical
T2 sequence (O95453 1-639): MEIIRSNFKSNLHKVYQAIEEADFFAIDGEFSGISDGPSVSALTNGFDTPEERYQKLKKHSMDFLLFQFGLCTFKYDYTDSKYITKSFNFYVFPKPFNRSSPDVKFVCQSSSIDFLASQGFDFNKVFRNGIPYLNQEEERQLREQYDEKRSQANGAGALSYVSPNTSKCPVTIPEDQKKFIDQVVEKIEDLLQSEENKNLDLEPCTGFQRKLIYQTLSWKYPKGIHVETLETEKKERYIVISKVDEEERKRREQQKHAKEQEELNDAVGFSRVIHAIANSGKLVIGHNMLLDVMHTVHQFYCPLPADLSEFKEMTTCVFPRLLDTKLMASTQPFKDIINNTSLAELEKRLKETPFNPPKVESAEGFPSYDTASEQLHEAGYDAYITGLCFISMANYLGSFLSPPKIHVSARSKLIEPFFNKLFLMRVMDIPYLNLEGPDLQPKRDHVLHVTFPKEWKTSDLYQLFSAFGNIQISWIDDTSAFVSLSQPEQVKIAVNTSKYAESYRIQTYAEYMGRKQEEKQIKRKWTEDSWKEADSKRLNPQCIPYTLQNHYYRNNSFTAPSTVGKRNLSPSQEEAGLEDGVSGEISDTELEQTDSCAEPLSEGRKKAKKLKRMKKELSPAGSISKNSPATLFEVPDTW
Excerpt: Although PARN and PAPD5 have opposing functions in TERC maturation and stabilization, PARN and PAPD5 are structurally related, and so molecules that inhibit one enzyme may inhibit the other.

T1 sequence (Q8NDF8 68-698 isoform Q8NDF8-5): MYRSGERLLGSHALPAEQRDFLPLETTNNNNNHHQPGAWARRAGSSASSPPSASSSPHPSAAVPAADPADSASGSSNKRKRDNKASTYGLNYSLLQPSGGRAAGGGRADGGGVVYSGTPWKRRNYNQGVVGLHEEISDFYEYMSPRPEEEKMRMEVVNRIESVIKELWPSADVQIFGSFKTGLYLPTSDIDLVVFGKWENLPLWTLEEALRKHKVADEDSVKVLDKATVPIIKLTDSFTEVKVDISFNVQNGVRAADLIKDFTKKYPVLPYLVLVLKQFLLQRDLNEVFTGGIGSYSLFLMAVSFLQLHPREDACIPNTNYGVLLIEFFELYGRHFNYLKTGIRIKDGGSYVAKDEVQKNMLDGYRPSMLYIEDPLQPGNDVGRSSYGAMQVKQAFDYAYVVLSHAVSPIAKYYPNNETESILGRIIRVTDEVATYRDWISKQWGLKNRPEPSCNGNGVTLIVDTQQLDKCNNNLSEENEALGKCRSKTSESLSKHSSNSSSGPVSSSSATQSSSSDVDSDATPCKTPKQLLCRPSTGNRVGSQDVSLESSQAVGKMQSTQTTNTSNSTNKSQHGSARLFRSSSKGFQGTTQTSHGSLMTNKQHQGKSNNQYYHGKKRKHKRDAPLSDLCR

Row | inhibition of PAPD5 (in words) (PAPD5) | inhibition of PARN exonuclease (in words) (PARN exonuclease) | SMILES | restoration of TERC 3′ end processing / maturation (in words) [1]
1 | – | – | CCOC(=O)c1cnc2ccc(OC(F)(F)F)cc2c1Nc1ccccc1C(=O)O [Entry 1, 2-[[3-ethoxycarbonyl-6-(trifluoromethoxy)quinolin-4-yl]amino]benzoic acid] | restoration of TERC maturation that is similar to that achieved by PAPD5 knockdown
2 | inhibit PAPD5 | do not inhibit PARN | CCOC(=O)c1cnc2ccc(OC(F)(F)F)cc2c1Nc1ccccc1C(=O)O [entry 1 in Table 5, 2-[[3-ethoxycarbonyl-6-(trifluoromethoxy)quinolin-4-yl]amino]benzoic acid] | –
3 | inhibit PAPD5 | do not inhibit PARN | CCc1ccc2ncc(C(=O)c3ccc(C)c(C)c3)c(N3CCC(C(N)=O)CC3)c2c1 [entry 2 in Table 5, 1-[3-(3,4-dimethylbenzoyl)-6-ethylquinolin-4-yl]piperidine-4-carboxamide] | –
